# Laboratory results published in patent US9895328B2, “Calcium formate as a supplement to prevent neural tube defects” (BOARD OF REGENTS, THE UNIVERSITY OF TEXAS SYSTEM, priority 2013, dated 2018).
# Like-named read-outs stand apart in the source and are kept apart here.
# What was measured:
# Folr1^−/− embryos = conditions: maternal supplementation, dose dependent ("tunable"); cited from earlier work
# [1] = tested on: neural tube defects (NTDs); conditions: periconceptional intake of supplemental folic acid, some populations; cited from earlier work
# Amt null embryos = conditions: maternal supplementation; cited from earlier work
# Mthfd1l^z/z embryos [2] = conditions: for Crown-rump length: E15.5
# Source text: Mice. All protocols used within this study were approved by the Institutional Animal Care and Use Committee of The University of Texas at Austin and conform to the National Institutes of Health Guide for the Care and Use of Laboratory Animals. All mice were maintained on a C57Bl/6 genetic background. Mice harboring a floxed conditional knockout cassette between exons 4 and 6 of Mthfd1l were obtained from the Wellcome Trust Sanger Institute (EUCOMM ID 37226). Mice carrying the floxed Mthfd1l allele were mated to mice expressing Cre recombinase under control of the E2a promoter (E2a-Cre) (Lakso M, et al. (1996) Proc. Natl. Acad. Sci. U.S.A 93:5860-5865) to generate heterozygous Mthfd1l^z/+ embryos lacking exon 5 and the neomycin resistance cassette (FIG. 2A). All mice were given ad libitum access to water and standard mouse chow (LabDiet 5K67).
# Maternal Supplementation with Calcium Formate. Mthfd1l^z/+ matings were set up in a cage equipped with a water bottle containing 0.0096M, 0.019M, 0.056M or 0.096M calcium formate. The females had access to the supplemented water at least one day before observation of the plug. These concentrations were calculated to deliver 250, 500, 1500 or 2500 mg calcium formate/kg/day, respectively, based on an average water intake of 5 mL per day for a 25 g C57BL/6 mouse (Green EL ed (1966) Biology of the Laboratory Mouse (Dover Publications, Inc., New York), 2nd Ed, p 706). The effect of formate supplementation was analyzed by a two-tailed T-test for crown-rump length
# Pregnant dams were administered calculated doses of 250-2500 mg/kg/day.
# Mthfd1l^z/z embryos [3] = test: Maternal supplementation with sodium formate, Mthfd1l^z/+ matings; assay type: in vivo, mouse
# Protocol: Maternal Supplementation with Sodium Formate.
# Because deletion of Mthfd1l is expected to result in loss of mitochondrial formate production, experiments were conducted to determine if maternal formate supplementation would improve development of Mthfd1l^z/z embryos. Pregnant dams were given ad libitum access to water containing sodium formate to achieve a calculated dose of 5000 or 7500 mg sodium formate/kg/day; controls were given water without formate. […] When dams were supplemented with 5000 mg/kg/day sodium formate, 4 Mthfd1l^+/+, 14 Mthfd1l^z/+, and 8 Mthfd1l^z/z embryos were obtained from 3 litters between E15.5-18.5. […] Next, the morphology of E10.5-E15.5 embryos from dams supplemented with 7500 mg/kg/day sodium formate was examined, obtaining 10 Mthfd1l^+/+ embryos, 31 Mthfd1l^z/+ embryos and 14 Mthfd1l^z/z embryos from 6 litters, again conforming to the expected Mendelian ratio (p=0.48). […] Importantly, 6 of the 14 Mthfd1l^z/z embryos were dissected from dams at E13.5 or E15.5, whereas no surviving Mthfd1l^z/z embryos were observed after E12.5 from unsupplemented dams. While supplemented versus non-supplemented embryos were not compared after E12.5 due to lethality of the unsupplemented embryos, formate supplementation partially rescued the growth defect in Mthfd1l^z/z embryos (FIGS. 5A, 5B). […] Supplementation had no significant effect on crown-rump length of wild-type embryos (5.9±0.2 mm).
# [4] = 250 mg/kg, of 6 Mthfd1l^z/z embryos
# [5] = 250 mg/kg, of 6 Mthfd1l^z/z embryos (Table 2)
# [6] = 250 mg/kg, of 6 Mthfd1l^z/z embryos (Table 3)
# [7] = 500 mg/kg, of 11 Mthfd1l^z/z embryos
# [8] = 500 mg/kg, of 11 Mthfd1l^z/z embryos (Table 2)
# [9] = 500 mg/kg, of 11 Mthfd1l^z/z embryos (Table 3)
# [10] = 1500 mg/kg, Mthfd1l^z/z embryos
# [11] = 1500 mg/kg, of 13 Mthfd1l^z/z embryos
# [12] = 1500 mg/kg, of 13 Mthfd1l^z/z embryos (Table 2)
# [13] = 1500 mg/kg, of 13 Mthfd1l^z/z embryos (Table 3)
# [14] = 2500 mg/kg, Mthfd1l^z/z embryos
# [15] = 2500 mg/kg, of 15 Mthfd1l^z/z embryos
# [16] = 2500 mg/kg, of 15 Mthfd1l^z/z embryos (Table 2)
# [17] = 2500 mg/kg, of 15 Mthfd1l^z/z embryos (Table 3)
# [18] = 3500 mg/kg, Mthfd1l^z/z embryos
# [19] = 3500 mg/kg, of 10 Mthfd1l^z/z embryos
# [20] = 3500 mg/kg, of 10 Mthfd1l^z/z embryos (Table 2)
# [21] = 3500 mg/kg, of 10 Mthfd1l^z/z embryos (Table 3)
# [22] = dams 5000 mg/kg/day sodium formate in water, 3 litters, E15.5-18.5, distribution vs Mendelian p=0.50
# [23] = dams 7500 mg/kg/day sodium formate, 6 litters, E10.5-E15.5, vs Mendelian p=0.48
# [24] = embryos lacking Mthfd1l, maternal supplementation
smiles,measurement,setting,value
Nc1nc(=O)c2c([nH]1)NCC(CNc1ccc(C(=O)N[C@@H](CCC(=O)O)C(=O)O)cc1)N2C=O (mixture of isomers) [5-formyl-THF],rescue of Folr1 knockout embryonic folate deficiency,Folr1^−/− embryos,can be rescued
"Nc1nc2ncc(CNc3ccc(C(=O)NC(CCC(=O)O)C(=O)O)cc3)nc2c(=O)[nH]1 (stereo in doubt) [folic acid, pteroyl-L-glutamic acid]",reduction of the incidence of NTDs,[1],≤ 70%
same,neurulation in Amt null embryos,Amt null embryos,no effect
O=C[O-].O=C[O-].[Ca+2] [calcium formate],"NTD, phenotype as a percentage","Mthfd1l^z/z embryos [2]; 250 mg/kg, Mthfd1l^z/z embryos",0.1667 percentage
same,"no defect observed, phenotype as a percentage","Mthfd1l^z/z embryos [2]; 250 mg/kg, Mthfd1l^z/z embryos",0 percentage
same,"orofacial defect and NTD, phenotype as a percentage","Mthfd1l^z/z embryos [2]; 250 mg/kg, Mthfd1l^z/z embryos",0.1667 percentage
same,"orofacial defect, phenotype as a percentage","Mthfd1l^z/z embryos [2]; 250 mg/kg, Mthfd1l^z/z embryos",0.6667 percentage
same,no defect observed (number of embryos),Mthfd1l^z/z embryos [2]; [4],0
same,orofacial defect and NTD (number of embryos),Mthfd1l^z/z embryos [2]; [4],1
same,number with NTD,Mthfd1l^z/z embryos [2]; [5],2
same,number with facial defect,Mthfd1l^z/z embryos [2]; [5],4
same,NTD (number of embryos),Mthfd1l^z/z embryos [2]; [6],1
same,orofacial defect (number of embryos),Mthfd1l^z/z embryos [2]; [6],4
same,"NTD, phenotype as a percentage","Mthfd1l^z/z embryos [2]; 500 mg/kg, Mthfd1l^z/z embryos",0 percentage
same,"no defect observed, phenotype as a percentage","Mthfd1l^z/z embryos [2]; 500 mg/kg, Mthfd1l^z/z embryos",0.2727 percentage
same,"orofacial defect and NTD, phenotype as a percentage","Mthfd1l^z/z embryos [2]; 500 mg/kg, Mthfd1l^z/z embryos",0 percentage
same,"orofacial defect, phenotype as a percentage","Mthfd1l^z/z embryos [2]; 500 mg/kg, Mthfd1l^z/z embryos",0.7273 percentage
same,no defect observed (number of embryos),Mthfd1l^z/z embryos [2]; [7],3
same,orofacial defect and NTD (number of embryos),Mthfd1l^z/z embryos [2]; [7],0
same,number with NTD,Mthfd1l^z/z embryos [2]; [8],0
same,number with facial defect,Mthfd1l^z/z embryos [2]; [8],8
same,NTD (number of embryos),Mthfd1l^z/z embryos [2]; [9],0
same,orofacial defect (number of embryos),Mthfd1l^z/z embryos [2]; [9],8
same,"NTD, phenotype as a percentage",Mthfd1l^z/z embryos [2]; [10],0.07692 percentage
same,"no defect observed, phenotype as a percentage",Mthfd1l^z/z embryos [2]; [10],0.6154 percentage
same,"orofacial defect and NTD, phenotype as a percentage",Mthfd1l^z/z embryos [2]; [10],0 percentage
same,"orofacial defect, phenotype as a percentage",Mthfd1l^z/z embryos [2]; [10],0.3077 percentage
same,no defect observed (number of embryos),Mthfd1l^z/z embryos [2]; [11],8
same,orofacial defect and NTD (number of embryos),Mthfd1l^z/z embryos [2]; [11],0
same,number with NTD,Mthfd1l^z/z embryos [2]; [12],1
same,number with facial defect,Mthfd1l^z/z embryos [2]; [12],4
same,NTD (number of embryos),Mthfd1l^z/z embryos [2]; [13],1
same,orofacial defect (number of embryos),Mthfd1l^z/z embryos [2]; [13],4
same,"NTD, phenotype as a percentage",Mthfd1l^z/z embryos [2]; [14],0.3333 percentage
same,"no defect observed, phenotype as a percentage",Mthfd1l^z/z embryos [2]; [14],0.6667 percentage
same,"orofacial defect and NTD, phenotype as a percentage",Mthfd1l^z/z embryos [2]; [14],0 percentage
same,"orofacial defect, phenotype as a percentage",Mthfd1l^z/z embryos [2]; [14],0 percentage
same,no defect observed (number of embryos),Mthfd1l^z/z embryos [2]; [15],10
same,orofacial defect and NTD (number of embryos),Mthfd1l^z/z embryos [2]; [15],0
same,number with NTD,Mthfd1l^z/z embryos [2]; [16],5
same,number with facial defect,Mthfd1l^z/z embryos [2]; [16],0
same,NTD (number of embryos),Mthfd1l^z/z embryos [2]; [17],5
same,orofacial defect (number of embryos),Mthfd1l^z/z embryos [2]; [17],0
same,"NTD, phenotype as a percentage",Mthfd1l^z/z embryos [2]; [18],0.1 percentage
same,"no defect observed, phenotype as a percentage",Mthfd1l^z/z embryos [2]; [18],0.6 percentage
same,"orofacial defect and NTD, phenotype as a percentage",Mthfd1l^z/z embryos [2]; [18],0 percentage
same,"orofacial defect, phenotype as a percentage",Mthfd1l^z/z embryos [2]; [18],0.3 percentage
same,no defect observed (number of embryos),Mthfd1l^z/z embryos [2]; [19],6
same,orofacial defect and NTD (number of embryos),Mthfd1l^z/z embryos [2]; [19],0
same,number with NTD,Mthfd1l^z/z embryos [2]; [20],1
same,number with facial defect,Mthfd1l^z/z embryos [2]; [20],3
same,NTD (number of embryos),Mthfd1l^z/z embryos [2]; [21],1
same,orofacial defect (number of embryos),Mthfd1l^z/z embryos [2]; [21],3
same,growth of Mthfd1l^z/z embryos with increasing maternal intake,"Mthfd1l^z/z embryos [2]; 250-2500 mg/kg/day, embryos dissected at E15.5",dose-response effect
same,Crown-rump length,"Mthfd1l^z/z embryos [2]; Mthfd1l^+/+ embryos, 250 mg/kg calcium formate to dams",1.39 + 0.1 cm
same,Crown-rump length,"Mthfd1l^z/z embryos [2]; Mthfd1l^+/+ embryos, 500 mg/kg calcium formate to dams",1.32 + 0.17 cm
same,Crown-rump length,"Mthfd1l^z/z embryos [2]; Mthfd1l^+/+ embryos, 1500 mg/kg calcium formate to dams",1.46 + 0.2 cm
same,Crown-rump length,"Mthfd1l^z/z embryos [2]; Mthfd1l^+/+ embryos, 2500 mg/kg calcium formate to dams",1.43 + 0.07 cm
same,Crown-rump length,"Mthfd1l^z/z embryos [2]; Mthfd1l^+/+ embryos, 3500 mg/kg calcium formate to dams",1.34 + 0.2 cm
same,Crown-rump length,"Mthfd1l^z/z embryos [2]; Mthfd1l^z/+ embryos, 250 mg/kg calcium formate to dams",1.38 + 0.1 cm
same,Crown-rump length,"Mthfd1l^z/z embryos [2]; Mthfd1l^z/+ embryos, 500 mg/kg calcium formate to dams",1.36 + 0.21 cm
same,Crown-rump length,"Mthfd1l^z/z embryos [2]; Mthfd1l^z/+ embryos, 1500 mg/kg calcium formate to dams",1.46 + 0.1 cm
same,Crown-rump length,"Mthfd1l^z/z embryos [2]; Mthfd1l^z/+ embryos, 2500 mg/kg calcium formate to dams",1.39 + 0.09 cm
same,Crown-rump length,"Mthfd1l^z/z embryos [2]; Mthfd1l^z/+ embryos, 3500 mg/kg calcium formate to dams",1.33 + 0.1 cm
same,Crown-rump length,"Mthfd1l^z/z embryos [2]; Mthfd1l^z/z embryos, 250 mg/kg calcium formate to dams",1.05 ± 0.1 cm
same,Crown-rump length,"Mthfd1l^z/z embryos [2]; Mthfd1l^z/z embryos, 500 mg/kg calcium formate to dams",1.03 ± 0.06 cm
same,Crown-rump length,"Mthfd1l^z/z embryos [2]; Mthfd1l^z/z embryos, 1500 mg/kg calcium formate to dams",1.17 ± 0.13 cm
same,Crown-rump length,"Mthfd1l^z/z embryos [2]; Mthfd1l^z/z embryos, 2500 mg/kg calcium formate to dams",1.20 ± 0.04 cm
same,Crown-rump length,"Mthfd1l^z/z embryos [2]; Mthfd1l^z/z embryos, 3500 mg/kg calcium formate to dams",1.1 ± 0.2 cm
same,NTD and orofacial defect phenotypes,"Mthfd1l^z/z embryos [2]; Table 3 and FIG. 6, mouse model",improves NTD and orofacial defect phenotypes in a dose-dependent manner
CSCC[C@H](N)C(=O)O [methionine],neurulation in Amt null embryos,Amt null embryos,significantly improves neurulation
O=C[O-].[Na+] [sodium formate],"growth of embryos (words, FIG. 5)","Mthfd1l^z/z embryos [3]; 7500 mg sodium formate/kg/day, Mthfd1l^z/z embryos at E11.5 vs unsupplemented dams",improved growth
same,number of Mthfd1l^z/z embryos with exencephaly,"Mthfd1l^z/z embryos [3]; 7500 mg/kg/day sodium formate, of 14 Mthfd1l^z/z embryos",3
same,number of Mthfd1l^z/z embryos dissected at E13.5 or E15.5 (survival past E12.5),"Mthfd1l^z/z embryos [3]; 7500 mg/kg/day sodium formate, of 14 Mthfd1l^z/z embryos, none survive after E12.5 unsupplemented",6
same,number of Mthfd1l^z/z embryos with normal neural tube closure,"Mthfd1l^z/z embryos [3]; 7500 mg/kg/day sodium formate, of 14 Mthfd1l^z/z embryos, p=0.028 vs unsupplemented nulls",11
same,number of Mthfd1l^+/+ embryos obtained,Mthfd1l^z/z embryos [3]; [22],4
same,number of Mthfd1l^z/+ embryos obtained,Mthfd1l^z/z embryos [3]; [22],14
same,number of Mthfd1l^z/z embryos obtained,"Mthfd1l^z/z embryos [3]; dams 5000 mg/kg/day sodium formate in water, 3 litters, E15.5-18.5, distribution vs Mendelian p=0.50, 0 from unsupplemented dams",8
same,number of Mthfd1l^+/+ embryos obtained,Mthfd1l^z/z embryos [3]; [23],10
same,number of Mthfd1l^z/+ embryos obtained,Mthfd1l^z/z embryos [3]; [23],31
same,number of Mthfd1l^z/z embryos obtained,Mthfd1l^z/z embryos [3]; [23],14
same,growth defect,Mthfd1l^z/z embryos [3]; [24],partially rescue the growth defect
same,incidence of NTDs,Mthfd1l^z/z embryos [3]; [24],decrease the incidence of NTDs
same,Crown-rump length,"Mthfd1l^z/z embryos [3]; formate supplemented Mthfd1l^z/z E11.5 embryos, p<0.01 vs unsupplemented (3.6±0.3)",5.0±0.1 mm
same,Crown-rump length,"Mthfd1l^z/z embryos [3]; wild-type embryos, supplementation had no significant effect",5.9±0.2 mm
